In patent KR20160066169A, “이카리시드 b2를 유효성분으로 함유하는 백모 방지용 및 백반증 개선용 조성물” ((주)아모레퍼시픽, priority 2014, dated 2016):
Read-outs that look alike come from different tables or passages of the source.

Legend:
Assay type in all cases: cell-based
[1] = test system: melanocytes (melan-a) [멜라닌 세포(melan-a)]; assay: 멜라닌 생성 촉진 효과 시험 (melanin production promoting effect, absorbance at 405 nm); details: 3 days
MITF = assay: 멜라노사이트에서의 MITF 발현 촉진 효과 (western blot, 501mel); details: for activity at 100 µM / activity at 50 ppm: IBMX 100 μM, icariside B2 50 ppm, negative control (DMSO 0.1%) = 100, read-out: MITF expression relative to negative control
[2] = test system: tyrosinase [티로시나제(tyrosinase)]; assay: 멜라노사이트에서의 티로시나제 발현 촉진 효과 (western blot, 501mel); details: for activity at 100 µM / activity at 50 ppm: IBMX 100 μM, icariside B2 50 ppm, negative control (DMSO 0.1%) = 100, read-out: tyrosinase expression relative to negative control

SMILES | activity at 100 µM ([1]; 72 h, IBMX 100 μM, 37℃, negative control (0.1% DMSO) = 100, read-out: ratio of melanin quantity to negative control) | activity at 100 µM (MITF; 24 h) | activity at 100 µM (MITF; 48 h) | activity at 100 µM (MITF; 72 h) | activity at 100 µM ([2]; 24 h) | activity at 100 µM ([2]; 48 h) | activity at 100 µM ([2]; 72 h) | melanin production promoting effect compared with positive control (result in words) ([1]; 100 ppm vs IBMX 100 μM) | activity at 50 ppm ([1]; 72 h, 50 ppm, 37℃, negative control (0.1% DMSO) = 100, read-out: ratio of melanin quantity to negative control) | activity at 100 ppm ([1]; 72 h, 100 ppm, 37℃, negative control (0.1% DMSO) = 100, read-out: ratio of melanin quantity to negative control) | melanin production (result in words) [1] | MITF protein expression (result in words) (MITF; 50 ppm, 24-72 h) | activity at 50 ppm (MITF; 24 h) | activity at 50 ppm (MITF; 48 h) | activity at 50 ppm (MITF; 72 h) | tyrosinase protein expression (result in words) ([2]; 50 ppm, 24-72 h) | activity at 50 ppm ([2]; 24 h) | activity at 50 ppm ([2]; 48 h) | activity at 50 ppm ([2]; 72 h)
CC(C)Cn1c(=O)n(C)c(=O)c2[nH]cnc21 [IBMX, 3-isobutyl-1-methylxanthine, reference compound] | 116% | 121% | 98% | 224% | 160% | 149% | 298% | – | – | – | – | – | – | – | – | – | – | – | –
CC(=O)C=CC12OC1(C)CC(OC1OC(CO)C(O)C(O)C1O)CC2(C)C (stereo not shown) [이카리시드 B2, icariside B2] | – | – | – | – | – | – | – | 양성대조군보다 높은 멜라닌 생성 촉진 효과 | 103% | 127% | 멜라닌 생성이 늘어났으며 | 단백질 발현을 상승시킴 | 85% | 107% | 115% | 단백질 발현을 상승시킴 | 126% | 132% | 180%
